Assay results from patent US11938121B2, “Treatment of infections and biofilm formation using a cellulose synthase inhibitor” (Purdue Research Foundation, priority 2020, dated 2024).

How the values were obtained:
Arabidopsis Col-0 [1] = assay: Crystalline cellulose content measurement of cell wall; format: in vivo, Arabidopsis thaliana; details: 1 μM, 7-day-old dark-grown seedlings
Method: Arabidopsis Col-0 seeds were sown on growth medium supplemented with 0.1% DMSO, 1 μM ES20, or different concentrations of ES20 analogs. […] Cellulose extraction and measurement were performed as previously described (Huang et al., 2020).

rice (Oryza sativa) = assay: Rice seedling root growth; format: in vivo; details: 20 μM, 6-day-old seedlings
From the text: (§1) ES20 has broad spectrum inhibitory effect on the growth of both dicotyledonous and monocotyledonous plants (Huang and Zhang, Plant Signal Behav. 2020, 15, 1780039). We tested whether ES20-1 has stronger inhibitory effect on the growth of monocotyledon plants than ES20. We grew rice (Oryza sativa) and maize (Zea mays) seedlings on the same concentrations of ES20 and ES20-1 and compared their effects on growth.

maize (Zea mays) = assay: Maize seedling root growth; format: in vivo; details: 20 μM, 6-day-old seedlings
From the text: as §1

[2] = molecular target: T1, GFP-CESA6c (central cytosolic domain of AtCESA6) (Arabidopsis thaliana, UniProt Q94JQ6); assay: MST assay with GFP-CESA6c; format: binding; details: 100 nM GFP-CESA6c
T1 construct: made in house; host or cells: E. coli
From the text: (§2) To obtain the central cytosolic domain of AtCESA6 for the MST assay, we inserted the GFP coding sequence into the SacI and PstI restriction enzyme sites of the pRSF-Duet-1 vector (Huang et al., 2020). The GFP coding sequence was amplified from the pUBN-GFP-DEST vector. The sequence encoding the central cytosolic domain of CESA6 (CESA6c) was amplified from Col-0 cDNA and fused with GFP at the C-terminus. CESA6c construct was used as a template for creating CESA6c^P595S construct by site-directed mutagenesis. Protein purification was performed as previously described (Huang et al., 2020).
(§3) MST assays were carried out using a Monolith NT.115 (NanoTemper) machine at the Chemical Genomics Facility at Purdue University. […] The ES20-1 was dissolved in DMSO, and the final concentration of DMSO was 5% (vol/vol). MST standard capillaries were used to load the samples into the MST instrument. Triplicate reactions were performed for each test. The MST data were processed using MO. Affinity Analysis Version 2.3 software.

GFP-CESA6c^P595S = molecular target: T2, GFP-CESA6c^P595S (Arabidopsis thaliana, UniProt Q94JQ6, P595S); assay: MST assay with GFP-CESA6c^P595S; format: binding
T2 construct: We purified AtCESA6 central cytoplasmic domain carrying missense mutation P595S (CESA6c^P595S); made in house; host or cells: E. coli (inferred from the wild-type CESA6c construct that served as template)
From the text: as §2, §3

Komagataeibacter xylinus [3] = assay: K. xylinus cell growth on HS solid medium; format: cell-based; details: 6 days
From the text: Based on primary protein sequence analysis and a comparison of three-dimensional protein structures, the catalytic sites of cellulose synthases are highly conserved across kingdoms (Huang et al., 2020, Purushotham et al., 2020). The amino acids that are directly involved in glucan chain initiation, elongation, and translocation are conserved between plant and bacterial cellulose synthases (Huang et al., 2020). Based on the conservation of catalytic sites in cellulose synthases, we hypothesized that ES20 and ES20-1 would inhibit bacterial cellulose biosynthesis as well. We chose to test the effects of ES20 and ES20-1 on cell growth and cellulose production in Komagataeibacter xylinus (K. xylinus, previously known as Gluconacetobacter xylinus) because this bacterium produces abundant cellulose. We first tested whether ES20 and ES20-1 affect K. xylinus cell growth. We grew K. xylinus cells in liquid […] (HS) medium and then we inoculated 20 μL of series diluted culture to HS solid growth medium supplemented with DMSO (0.1%) or different concentrations of ES20 and ES20-1. […] We found ES20 and ES20-1 affect K. xylinus colony morphology as well. […] Wrinkles radiating structure is often observed in cellulose-producing bacteria strains and this structure is often affected when cellulose biosynthesis is disrupted.
Komagataeibacter xylinus (previously named Gluconacetobacter xylinus) ATCC strain 700178 was obtained from ATCC (Manassas, Va., USA) to evaluate cellulose production. HS (Hestrin and Schramm) medium was used for culture; HS liquid medium contains 2.0% glucose (w/v), 0.5% yeast extract (w/v), 0.5% peptone (w/v), 0.27% Na2HPO4 (w/v), and 0.15% citric acid (w/v), pH 5.0, and HS solid medium was solidified with 1.8% agar (w/v). To prepare the initial inoculation source, a single K. xylinus colony grown on HS solid medium was transferred to HS liquid medium and cultured at 26° C. for 5 days under static conditions. We used cells from the bottom of the liquid culture as the initial inoculation source to avoid biofilm aggregates at the air-liquid interface. To test the effect of ES20 and ES20-1 on the bacteria growth, initial inoculation source was series diluted and 20 μL culture from each diluted solution was dropped on HS solid medium supplemented with DMSO (0.1%) or different concentrations of ES20 and ES20-1 and cultured at 26° C. for 6 days after the dropped culture was completely dry. To test the effects of ES20 and ES20-1 on cellulose production, the prepared inoculation source was inoculated at a dilution ratio of 1:1000 dilution in HS liquid medium supplemented with 0.1% DMSO or 20 μM of ES20 or ES20-1. Static cultivation was carried out in a 26° C. incubator, and agitated cultivation was carried out at 26° C. with shaking at 220 rpm. […]

Komagataeibacter xylinus [4] = assay: K. xylinus cellulose production in liquid culture; format: cell-based; details: 20 μM
From the text: We next grew K. xylinus cells in growth medium supplemented with DMSO, ES20, or ES20-1 under agitation. […] We also grew K. xylinus in liquid medium supplemented with DMSO, ES20, or ES20-1 under static cultivation conditions. Without agitation, pellicles containing cellulose often form at the air-liquid interface. […] To quantify the effects of ES20 and ES20-1 on cellulose production, we harvested the pellicles from these cultures and isolated cellulose from the pellicles.
Komagataeibacter xylinus (previously named Gluconacetobacter xylinus) ATCC strain 700178 was obtained from ATCC (Manassas, Va., USA) to evaluate cellulose production. HS (Hestrin and Schramm) medium was used for culture; HS liquid medium contains 2.0% glucose (w/v), 0.5% yeast extract (w/v), 0.5% peptone (w/v), 0.27% Na2HPO4 (w/v), and 0.15% citric acid (w/v), pH 5.0, and HS solid medium was solidified with 1.8% agar (w/v). To prepare the initial inoculation source, a single K. xylinus colony grown on HS solid medium was transferred to HS liquid medium and cultured at 26° C. for 5 days under static conditions. We used cells from the bottom of the liquid culture as the initial inoculation source to avoid biofilm aggregates at the air-liquid interface. To test the effect of ES20 and ES20-1 on the bacteria growth, initial inoculation source was series diluted and 20 μL culture from each diluted solution was dropped on HS solid medium supplemented with DMSO (0.1%) or different concentrations of ES20 and ES20-1 and cultured at 26° C. for 6 days after the dropped culture was completely dry. To test the effects of ES20 and ES20-1 on cellulose production, the prepared inoculation source was inoculated at a dilution ratio of 1:1000 dilution in HS liquid medium supplemented with 0.1% DMSO or 20 μM of ES20 or ES20-1. Static cultivation was carried out in a 26° C. incubator, and agitated cultivation was carried out at 26° C. with shaking at 220 rpm. To isolate cellulose from pellicles, the pellicles were removed from liquid culture, washed several times with deionized water, and soaked in 0.1 M NaOH at 80° C. for 2 h. The pellicles were washed several times with deionized water to completely remove the alkali. The purified cellulose was dried at 60° C. for ˜1 day until a constant dry mass was reached.

[5] = system: Rhodobacter sphaeroidesin; assay: Rhodobacter sphaeroidesin growth in overnight culture; format: cell-based, Rhodobacter sphaeroides; details: vs DMSO control media
From the text: To test the effect of Endosidin20/Cellulosin in bacterial cell growth, we first grew Rhodobacter sphaeroidesin in the presence of Ensodin20/Cellulosin.

Arabidopsis Col-0 [6] = details: 1 μM; cited from earlier work
[7] = system: AtCESA6 (cesa6 alleles es20r1-es20r15); details: Huang et al., 2020; cited from earlier work
[8] = system: AtCESA6 carrying missense mutations in prc1-1; details: Huang et al., 2020; cited from earlier work
[9] = molecular target: T3, YFP-AtCESA6 cellulose synthase complexes (CSCs) in root epidermal cells (Arabidopsis thaliana, UniProt Q94JQ6); details: Huang et al., 2020; cited from earlier work
T3 construct: expressed in transfected cells; host or cells: transgenic Arabidopsis thaliana YFP-AtCESA6 seedlings (total protein extract for DARTS; root epidermal cells for imaging)

[10] = 5 days static cultivation, vs DMSO

Question: With `COc1ccc(C(=O)NC(=S)NNC(=O)c2ccccc2C)cc1` [ES20, Endosidin20] as the compound, how does the “crystalline cellulose content in hypocotyl cell wall” value (Arabidopsis Col-0 [1]; mean±SD, n=3) read?
Answer: The value was 109 ± 4 µg/mg.

Question: What about the “reduction of crystalline cellulose levels in the hypocotyl” value (Arabidopsis Col-0 [1]; vs DMSO) of the same compound?
Answer: Its value is “approximately 35%”.

Question: What about the “rice root growth inhibition” value (rice (Oryza sativa)) of the same compound?
Answer: The value was “could inhibit the root growth”.

Question: What about the “maize root growth inhibition” value (maize (Zea mays)) of the same compound?
Answer: Its value is “could inhibit the root growth”.

Question: What about the “interaction with CESA6c” value [2] of the same compound?
Answer: Its value is “interacted”.

Question: What about the “interaction with CESA6c^P595S” value (GFP-CESA6c^P595S) of the same compound?
Answer: The value was “interacts”.

Question: And the “K. xylinus cell growth inhibition” value (Komagataeibacter xylinus [3]; 20 μM and 50 μM)?
Answer: The value was “inhibit K. xylinus cell growth at both 20 μM and 50 μM concentrations”.

Question: And the “K. xylinus colony morphology (wrinkles radiating structures)” value (Komagataeibacter xylinus [3]; 20 μM)?
Answer: Its value is “the wrinkles are not obvious”.

Question: What about the “size of cellulose clusters” value (Komagataeibacter xylinus [4]; 5 days agitated cultivation, vs DMSO) of the same compound?
Answer: The value was “smaller”.

Question: And the “dry mass of cellulose from pellicles” value (Komagataeibacter xylinus [4]; 5 days static cultivation, mean±SD, n=9)?
Answer: The value was 268 ± 139 mg/L.

Question: What about the “decrease of dry mass of cellulose from pellicles” value (Komagataeibacter xylinus [4]; [10]) of the same compound?
Answer: Its value is about 45%.

Question: And the pellicle thickness (Komagataeibacter xylinus [4]; [10])?
Answer: The pellicle thickness was “pellicles in cultures containing DMSO are thicker”.

Question: And the “growth of Rhodobacter sphaeroidesin” value [5]?
Answer: The value was “significantly slower”.

Question: What about the “inhibition of Arabidopsis thaliana root growth” value (Arabidopsis Col-0 [6]) of the same compound?
Answer: Its value is “more than 50%”.

Question: What about the “sensitivity of es20r1-es20r15 mutants to ES20” value [7] of the same compound?
Answer: The value was “reduced sensitivity”.

Question: What about the “sensitivity of transgenic plants with AtCESA6 catalytic site mutations to ES20” value [8] of the same compound?
Answer: The value was “also had reduced sensitivity”.

Question: And the “effect on CSC motility, density and localization” value [9]?
Answer: Its value is “reduces the motility and density of CSCs at the PM and induces their accumulation at the SmaCCs and Golgi”.

Question: What about the “effect on delivery rate of CSCs to PM” value [9] of the same compound?
Answer: Its value is “reduced the delivery rate of CSCs to PM”.
